In US6590123B2, “Aminobenzoic acid derivatives having anti-tumorigenic activity, methods of making and using the same” (Mount Sinai School of Medicine of New York University, priority 1998, dated 2003):
≈ marks a conversion by molar mass, not a printed value. Where “and” joins values, the source holds several entries; their conditions need not be identical. Identical values can stand only once. Like-named read-outs stand apart in the source and are kept apart here.

How the values were obtained:
[1] = system: CEM cells; assay: Cytotoxicity, ID50 and ID90 by trypan blue staining; assay type: cell-based; conditions: for IC90 / IC50: Homo sapiens, CCRF-CEM; for IC90: 48 h, read-out: ID90 (the source's name); for IC50: NT = Non-toxic to CEM cells
Description: CEM cells, a human T-cell lymphoblastoid leukemia cell line (American Type Culture Collection, Rockville, Md.), were cultured in suspension (Iscove's Dulbecco's Medium) supplemented with 10% heat inactivated fetal bovine serum (FBS), penicillin (250 μ/ml) and streptomycin (250 μl/ml). Cells were incubated at 37° C. in 5% C02 and only those cells in exponential growth were used.
CEM cells were seeded into 96-well microplates (Falcon, Oxnard, Calif.) at 10^5 cell per well, then treated with 0-10 μg/ml of the candidate compounds for 48 h at 37° C. yielding a total volume of 250 μ/well. Cell viability was assessed by trypan blue staining. ID50 and ID90 were defined as the concentration killing 50% or 90% of the cells in comparison with untreated controls, and calculated by non-linear regression analysis.
Cells in suspension culture were seeded into 96-well microplates (Falcon, Oxnard, Calif.) at 10^5 cell per well, followed, by treatment with 0-10 μg/ml of the candidate compounds for 48 hr at 37° C. with total volume of 250 μl per well. Cell viability was assessed by trypan blue exclusion.
The ID50 and ID90 was determined in duplicate in every set of experiments, and each experiment was repeated 3 times under identical conditions. ID50 and ID90 were defined as drug concentrations that induced 50% or 90% cellular death in comparison with untreated controls and calculated by non-linear regression analysis. […]

[2] = system: CEM cells; assay: DNA fragmentation by electrophoresis (apoptosis); assay type: cell-based, human; conditions: for apoptosis, DNA fragmentation on gel electrophoresis: 48 hours, compound 8 0.025 μg/ml, compound 9 0.005 μg/ml, fluorine compound 5.0 μg/ml, chlorine compound 0.75 μg/ml; for Apoptosis: 0.025 μg/ml, DNA electrophoresis
Description: DNA fragmentation was determined by a method reported previously (reference 3). Briefly, cells were treated in 1 ml lysis buffer (0.01M Tris. HCL pH 8.0, 0.01M NaCl, 0.01M EDTA pH 8.0 and 5% sodium dodecyl sulfate) containing 1 μg/ml protease K for 1 h at 50° C. The resulting products were extracted with phenol and chloroform:isoamylalcohol (24:1, v/v), and precipitated with ethanol followed by centrifugation at 7800 g (Sorvall RC-5B Du Pont, Newtown, Conn.). The ethanol was removed and the dry pellets of nucleic acid were resuspended in 10 mM Tris-HCL/1 mM EDTA solution. When DNA content was determined spectrophotometrically all samples had A260/A280 ratio≧2. The DNA samples were then treated with RNase (Sigma, St. Louis, Mo.) at a final concentration of 0.1 μg/μl for 20 min at 37° C. before gel loading. Approximately 4 μg size DNA aliquots were loaded onto horizontal agarose gel (1.5%) prepared with 1% ethidium bromide. Electrophoresis was performed at 75 volts for 2 h and the DNA patterns were visualized with UV light.
[…] After incubation, cells were washed twice in PBS. Cell pellets were resuspended in drug-free medium and incubated for 48 hr at 37° C. Cell viability, morphology, mitotic spindles, cell cycle distribution and apoptosis were determined 24 hr and 48 hr post pulse exposure.
Soluble DNA from cells was extracted by the method reported previously (14). Briefly, after washing with PBS, cells were treated in 1 ml lysis buffer (0.01 M Tris.HCL pH 8.0, 0.01 M NaCl, 0.01M EDTA pH 8.0 and 5% sodium dodecyl sulfate) containing 1 μg/ml proteinase K for 1 hr at 50° C. The resulting products were extracted with phenol and chloroform:isoamylalcohol (24:1, v/v), and precipitated with ethanol followed by centrifugation at 7800 g (Sorvall RC-5B Du Pont, Newtown, Conn.). The ethanol was removed and the dry pellet of nucleic acid was resuspended in 10 mM Tris-HCL/1 mM EDTA solution. DNA content was determined spectrophotometrically by measuring absorption at 260 nm (A260). All samples, had A260/A280≧2. The DNA samples were then treated with RNase (Sigma, St. Louis, Mo.) at a final concentration of 0.1 μg/l for 20 min at 37° C. before gel loading. The DNA sample (4 μg) was analyzed in 1.5% horizontal agarose gel prepared with 1% ethidium bromide. Electrophoresis was performed at 75 volts for 2 hours and the DNA migration was visualized under UV light.

[3] = system: P338 leukemia lymphoma cells; assay: Survival and ED50 in mice implanted i.p. with P338 lymphoma; assay type: in vivo, male C57 BL/6JX mice; conditions: for ED50: P338 leukemia lymphoma i.p. in mice, drug i.p. on days 2 and 8
Description: FIG. 9 is a plot graph of the survival rate of male C57 BL/6JX mice implanted (i.p.) with P338 lymphoma, from 10 to 40 days after implantation. Two groups were used for the study: a control group of ten and a test group of ten that were treated with 20 mg/kg, (i.p.) of compound 8 at 2 and 8 days post-implantation.
(§1) The in vivo efficacy of 3-BAABU and 3-IAABU of the present invention was asssessed in a murine model, along with known anti-tubule agents, vinblastine and paclitaxel, as a comparative standard. Approximately 10^6 P338 leukemia lymphoma cells/mouse were implanted intra-peritoneal (i.p.) into male C57 BL/6JX mice (Jackson Laboratories, N.Y.). On days 2 and 8 post-implantation, drugs were administrated i.p. at the following concentration ranges: 3-BAABU from 16.6 to 116 μmole/kg, 3-IAABU from 14.4 to 101 μmole/kg, vinblastine from 2.2 to 20 μmole/kg and paclitaxel from 28 to 57 μmole/kg.
(§2) Both control and treated animals were examined for ascitic tumor burden daily for 35 days. […] Therapeutic index was defined as the ratio of LD50 (lethal dose) to ED50 (effective dose).

[4] = LD50 (lethal dose) in mice; conditions: mouse, in vivo, ip
From the text: as §1, §2

[5] = CEM cells, concentration killing 90% of the cells

| SMILES | fold increase of ID50 relative to 3-BAABU ([1]; CEM leukemic cells) | IC90 [1, 5] | IC50 ([1]; CEM leukemic cells, 48 hr) | apoptosis, DNA fragmentation on gel electrophoresis [2] | IC90 ([1]; CEM, Human T-cell Leukemia, 48 hr) | ID50 of non-malignant cells relative to leukemic and lymphoma cell lines (times) ([1]; non-malignant cells vs leukemia or lymphoma cell lines, listed as 3-BAABU) | Apoptosis ([2]; Continuous Exposure (24 hr; 48 hr in footnote)) | Apoptosis ([2]; Pulse Exposure (1 hr)) | Survival IL % ([3]; P338 Lymphoma (i.p.), 20 mg/kg ip on days 2 & 8) | Survival Mean ± SD ([3]; P338 Lymphoma (i.p.), 20 mg/kg ip on days 2 & 8, control 18.6 ± 1.1) | ED50 [3] | LD50 [4] | fold more toxic than the bromine compound 8 ([1]; CEM cells, cytotoxicity) | fold more toxic than the chlorine compound 7 ([1]; CEM cells, cytotoxicity) |
| --- | --- | --- | --- | --- | --- | --- | --- | --- | --- | --- | --- | --- | --- | --- |
| NC(=O)NC(=O)c1cccc(NC(=O)CCl)c1 [Compound 7, 3-Chloroacetoamido, benzoylurea] | 40 fold | 0.6 µg/mL and 2.3 µM | 1950 nM | much less DNA fragmentation |  |  |  |  |  |  |  |  |  |  |
| NC(=O)NC(=O)c1cccc(NC(=O)CBr)c1 [Compound 8, 3-Bromoacetoamido, benzoylurea] |  | 0.025 µg/mL and 82 nM | 40 nM | 180-200 bp multiple-unit ladder pattern | 0.02 ± 0.003 µg/mL (≈ 0.0666 µM) | 60-150 times | ++++ (++++: >75% cells were affected) | ++++ (++++: >75% cells were affected) | 54% | 28.6 ± 5.2 | 27 µmol/kg | about 90 μmole/kg |  |  |
| NC(=O)NC(=O)c1cccc(NC(=O)CI)c1 [Compound 9, 3-Iodoacetoamido, benzoylurea] |  | 0.005 µg/mL and 14 nM |  | 180-200 bp multiple-unit ladder pattern |  |  |  |  |  |  | 26 µmol/kg | about 90 μmole/kg | 5 fold | 160 fold |
